Tests used:
Test in all cases: relative viability (nuclei count vs DMSO), 5 days (fraction); higher = more cells survive
[1] = compound: Cc1ccc(C(=O)Nc2ccc(CN3CCN(C)CC3)c(C(F)(F)F)c2)cc1C#Cc1cnc2cccnn12 [Ponatinib] + COc1cc2c(Oc3ccc(NC(=O)C4(C(=O)Nc5ccc(F)cc5)CC4)cc3F)ccnc2cc1OCCCN1CCOCC1 [Foretinib] (partner 0.25 µM)
In short: (§1)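 Lung cancer cell lines in 1536-well plates got either a single drug or a fixed anchor-drug dose together with five library-drug doses (not always all listed) in √10 steps, by pin tool, on the day after seeding. Nuclei were counted after 5 days, and relative viability is the treated-to-vehicle ratio of nuclei counts. Values are medians of duplicate plates.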

[2] = compound: Cc1ccc(Nc2nccc(N(C)c3ccc4c(C)n(C)nc4c3)n2)cc1S(N)(=O)=O [Pazopanib] + COc1cccc2cc(-c3nc([C@H]4CC[C@H](C(=O)O)CC4)n4ncnc(N)c34)[nH]c12 [OSI-027] (partner 0.5 µM)
In short: as §1

[3] = compound: Cc1ccc(Nc2nccc(N(C)c3ccc4c(C)n(C)nc4c3)n2)cc1S(N)(=O)=O [Pazopanib] + CS(=O)(=O)CCNCc1ccc(-c2ccc3ncnc(Nc4ccc(OCc5cccc(F)c5)c(Cl)c4)c3c2)o1 [Lapatinib] (partner 2 µM)
In short: as §1

[4] = compound: Cc1ccc(Nc2nccc(N(C)c3ccc4c(C)n(C)nc4c3)n2)cc1S(N)(=O)=O [Pazopanib] + Nc1nc2[nH]cc(CCc3ccc(C(=O)N[C@@H](CCC(=O)O)C(=O)O)cc3)c2c(=O)[nH]1 [Pemetrexed] (partner 0.2 µM)
In short: as §1

Cell Line	relative viability ([1]; first compound 0.002 µM)	relative viability ([1]; first compound 0.006325 µM)	relative viability ([1]; first compound 0.06325 µM)	relative viability ([1]; first compound 0.2 µM)	relative viability ([2]; first compound 0.01 µM)	relative viability ([2]; first compound 0.03162 µM)	relative viability ([2]; first compound 0.1 µM)	relative viability ([2]; first compound 0.3162 µM)	relative viability ([2]; first compound 1 µM)	relative viability ([3]; first compound 0.01 µM)	relative viability ([3]; first compound 0.03162 µM)	relative viability ([3]; first compound 0.1 µM)	relative viability ([3]; first compound 0.3162 µM)	relative viability ([3]; first compound 1 µM)	relative viability ([4]; first compound 0.01 µM)	relative viability ([4]; first compound 0.03162 µM)	relative viability ([4]; first compound 0.1 µM)	relative viability ([4]; first compound 0.3162 µM)	relative viability ([4]; first compound 1 µM)
201T	1.1	1.1	1.18	1.03	0.83	0.575	0.799	0.742	0.747	0.971	0.998	1.04	1.04	1.06	0.369	0.331	0.318	0.333	0.323
A549	0.965	0.941	1.13	0.887	–	–	–	–	–	0.967	0.977	1.07	1.1	0.914	–	–	–	–	–
A-427	1	1.19	1.11	0.715	0.512	0.481	0.462	0.516	0.448	0.992	1.07	1	1.06	1.22	0.942	1.04	0.934	1.05	1.05
ABC-1	1.01	0.995	1.15	1.09	0.367	0.572	–	0.668	0.579	–	1.32	1.37	0.91	1.27	–	–	–	–	–
BEN	0.549	0.663	0.457	0.674	–	0.348	0.314	0.287	0.314	–	0.574	0.721	0.808	0.774	0.67	0.803	0.706	0.8	0.834
CAL-12T	1.16	0.979	1.21	1.09	0.473	0.943	0.609	0.591	0.684	0.483	0.669	0.69	0.733	0.816	1.13	1.3	1.37	1.08	1.26
COR-L23	0.931	0.896	0.929	0.796	0.91	0.838	0.872	0.832	0.913	0.966	1.07	1.06	1.2	1	0.177	0.182	0.207	0.204	0.203
COR-L 105	0.882	1.15	1.23	1.3	0.636	0.665	0.635	0.75	0.857	0.342	0.414	0.386	0.341	0.401	1.07	1.24	1.19	1.21	1.21
Calu-6	0.849	0.867	0.931	0.816	–	–	–	–	–	1.07	1.14	1.21	0.999	0.96	–	–	–	–	–
ChaGo-K-1	0.868	0.923	0.959	0.832	0.528	0.504	0.541	0.498	0.581	–	–	–	–	–	0.267	0.256	0.268	0.257	0.252
EBC-1	0.106	0.0969	0.092	0.115	–	–	–	–	–	0.184	0.251	0.232	0.247	0.232	–	–	–	–	–
EKVX	0.615	0.784	0.846	1.01	0.664	0.741	0.642	0.691	0.788	0.183	0.213	0.231	0.344	0.297	0.37	0.403	0.377	0.35	0.361
EMC-BAC-2	0.965	0.989	1.06	0.986	–	0.424	0.394	0.404	0.399	0.735	0.921	0.915	0.904	0.991	–	0.456	0.384	0.434	0.425
EPLC-272H	0.735	0.784	0.912	0.416	–	0.253	0.337	0.336	0.277	0.638	0.797	1.01	1.14	0.802	0.313	0.461	0.318	0.332	0.353
H3255	0.739	0.898	0.699	0.773	0.512	0.535	0.638	0.606	0.752	0.203	0.26	0.248	0.285	0.256	0.549	0.585	0.581	0.569	0.583
HARA	0.859	0.855	0.963	0.878	0.581	0.583	0.504	0.642	0.6	0.582	0.746	0.58	0.725	0.695	0.245	0.244	0.242	0.207	0.237
